Reference: PubChem BioAssay (NCI)
“And” between values parts separate entries of the source, which are not always exact repeats. Equal entries are not always repeated.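 Five concentrations, 48 hours, 96-well plates. The concentration for 50% growth inhibition is given as GI50. TGI: concentration producing complete growth inhibition.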

What was measured:
Assay in all cases: DTP human tumour cell line panel, 48 h
[1] = tested on: UACC-62 melanoma
[2] = tested on: M14 melanoma
[3] = tested on: SF-539 CNS
[4] = tested on: SNB-19 CNS
[5] = tested on: MDA-MB-231 breast
[6] = tested on: HS 578T breast
[7] = tested on: NCI-H522 lung
[8] = tested on: NCI-H23 lung
[9] = tested on: IGROV1 ovarian
[10] = tested on: EKVX NSCLC
[11] = tested on: SK-MEL-28 melanoma
[12] = tested on: NCI-H460 lung
[13] = tested on: RXF 393 renal
[14] = tested on: RPMI-8226 leukemia
[15] = tested on: ACHN renal
[16] = tested on: LOX IMVI melanoma
[17] = tested on: NCI-H226 lung
[18] = tested on: MOLT-4 leukemia
[19] = tested on: U251 CNS
[20] = tested on: KM12 colon
[21] = tested on: SK-MEL-2 melanoma
[22] = tested on: TK-10 renal
[23] = tested on: HT29 colon
[24] = tested on: MCF7 breast
[25] = tested on: COLO 205 colon
[26] = tested on: MALME-3M melanoma
[27] = tested on: T-47D breast
[28] = tested on: HOP-62 NSCLC
[29] = tested on: DU-145 prostate
[30] = tested on: SW-620 colon
[31] = tested on: SK-MEL-5 melanoma
[32] = tested on: MDA-N
[33] = tested on: OVCAR-5 ovarian
[34] = tested on: SF-268 CNS
[35] = tested on: A549 NSCLC
[36] = tested on: SN12C renal
[37] = tested on: SF-295 CNS
[38] = tested on: HCT-15 colon
[39] = tested on: OVCAR-4 ovarian
[40] = tested on: HCC-2998 colon
[41] = tested on: SK-OV-3 ovarian
[42] = tested on: SNB-75 CNS
[43] = tested on: 786-0 renal
[44] = tested on: UACC-257 melanoma
[45] = tested on: K-562 leukemia
[46] = tested on: OVCAR-8 ovarian
[47] = tested on: CCRF-CEM leukemia
[48] = tested on: NCI/ADR-RES ovarian
[49] = tested on: CAKI-1 renal
[50] = tested on: MDA-MB-435
[51] = tested on: HOP-92 NSCLC
[52] = tested on: HCT-116 colon
[53] = tested on: OVCAR-3 ovarian
[54] = tested on: SR leukemia
[55] = tested on: PC-3 prostate
[56] = tested on: UO-31 renal
[57] = tested on: HL-60(TB) leukemia
[58] = tested on: BT-549 breast
[59] = tested on: A498 renal

`CC12OC(=O)[C@@]3(O)CCC4C(C[C@H]5O[C@]56CC=CC(=O)[C@]46C)C45OC[C@H]6C(=O)O[C@@H]1C[C@@]6(C)[C@H](C4=O)C23O5` (stereo partly drawn) showed a TGI [1] of 3460 nM, a TGI [2] of 4320 nM and a TGI [3] of 923 nM. It also gave a TGI [4] of 11800 nM, a TGI [5] of 2580 nM and a TGI [6] of 68900 nM. It also gave a TGI [7] of 1770 nM, a TGI [8] of 2180 nM and a TGI [9] of 2580 nM. It also gave a TGI [10] of 16600 nM, a TGI [11] of 2060 nM and a TGI [12] of 8690 nM. The TGI [13] was 2430 nM, the TGI [14] was 2470 nM and the TGI [15] was 8450 nM. For the same compound, the TGI [16] was 6920 nM, the TGI [17] was 6980 nM and the TGI [18] was 21400 nM. For the same compound, the TGI [19] was 5770 nM, the TGI [20] was 3970 nM and the TGI [21] was 9380 nM. It also gave a TGI [22] of 3970 nM, a TGI [23] of 8990 nM and a TGI [24] of 3300 nM. The TGI [25] was 1930 nM, the TGI [26] was 5720 nM and the TGI [27] was 5270 nM. For the same compound, the TGI [28] was 10400 nM, the TGI [29] was 7770 nM and the TGI [30] was 4870 nM. It also gave a TGI [31] of 2860 nM, a TGI [32] of 26100 nM and a TGI [33] of 10700 nM. The TGI [34] was 1910 nM, the TGI [35] was 13700 nM and the TGI [36] was 5390 nM. The TGI [37] was 16200 nM, the TGI [38] was 4430 nM and the TGI [39] was 8270 nM. The TGI [40] was 10500 nM, the TGI [41] was 18600 nM and the TGI [42] was 20700 nM. The TGI [43] was 2250 nM, the TGI [44] was 4980 nM and the TGI [45] was greater than 100000 nM. It also gave a TGI [46] of 12600 nM, a TGI [47] of 1450 nM and a TGI [48] greater than 100000 nM. For the same compound, the TGI [49] was 7530 nM, the TGI [50] was 5200 nM and the TGI [51] was 5670 nM. For the same compound, the TGI [52] was 4970 nM, the TGI [53] was 2770 nM and the TGI [54] was 2460 nM. For the same compound, the TGI [55] was 12900 nM.

Compound `COc1ccc2[nH]c3c(C)c4ccnc(NCCCN(C)CCCNc5ccc6nnn7c8ccccc8c(=O)c5c67)c4c(C)c3c2c1` has a TGI [2] of 2130 nM, a TGI [3] of 1380 nM and a TGI [4] of 2420 nM. It also gave a TGI [5] of 3190 nM, a TGI [6] of 3910 nM and a GI50 [56] of 1290 nM. The TGI [56] was 2610 nM and 2760 nM, the TGI [7] was 1670 nM and the TGI [8] was 2040 nM. It also gave a TGI [9] of 1800 nM, a TGI [10] of 2170 nM and a TGI [57] of 1210 nM. The GI50 [11] was 3450 nM, the TGI [12] was 492 nM and the TGI [13] was 2570 nM. The TGI [14] was 2190 nM, the GI50 [15] was 136 nM and the TGI [15] was 1290 nM and 1550 nM. It also gave a TGI [16] of 1620 nM, a TGI [18] of 132 nM and a TGI [19] of 1670 nM. For the same compound, the GI50 [20] was 818 nM, the TGI [20] was 1800 nM and 2330 nM and the TGI [22] was 2380 nM. For the same compound, the TGI [23] was 1360 nM, the TGI [24] was 1250 nM and the TGI [25] was 3530 nM. It also gave a TGI [27] of 6940 nM, a TGI [28] of 2050 nM and a TGI [30] of 1160 nM. For the same compound, the TGI [32] was 2090 nM, the TGI [33] was 2730 nM and the GI50 [34] was 209 nM. For the same compound, the TGI [34] was 2510 nM and 3140 nM, the TGI [35] was 1060 nM and the GI50 [36] was 294 nM. The TGI [36] was 1990 nM and 1670 nM, the TGI [37] was 1440 nM and the TGI [38] was 1570 nM. For the same compound, the TGI [39] was 4720 nM, the TGI [40] was 1440 nM and the TGI [58] was 3510 nM. For the same compound, the GI50 [41] was 3290 nM, the TGI [41] was greater than 100000 nM and the GI50 [42] was 1410 nM. The TGI [42] was 2170 nM and 2860 nM, the TGI [43] was 1690 nM and the TGI [44] was 4750 nM. For the same compound, the TGI [46] was 2130 nM, the TGI [47] was 5510 nM and the TGI [48] was 2690 nM. For the same compound, the TGI [49] was 2270 nM, the TGI [50] was 1750 nM and the TGI [52] was 1140 nM. For the same compound, the TGI [53] was 2400 nM, the TGI [59] was 2880 nM and the TGI [54] was greater than 100000 nM. For the same compound, the TGI [55] was 1910 nM.
